Paper PMC4917448 (Journal of biomolecular screening, 2016)

Key:
HDAC6 = target: T1, HDAC6 (Homo sapiens, UniProt Q9UBN7); experiment: Fluorogenic isoform-specific HDAC assay, HDAC6; assay type: biochemical
T1 sequence (Q9UBN7 1-1215): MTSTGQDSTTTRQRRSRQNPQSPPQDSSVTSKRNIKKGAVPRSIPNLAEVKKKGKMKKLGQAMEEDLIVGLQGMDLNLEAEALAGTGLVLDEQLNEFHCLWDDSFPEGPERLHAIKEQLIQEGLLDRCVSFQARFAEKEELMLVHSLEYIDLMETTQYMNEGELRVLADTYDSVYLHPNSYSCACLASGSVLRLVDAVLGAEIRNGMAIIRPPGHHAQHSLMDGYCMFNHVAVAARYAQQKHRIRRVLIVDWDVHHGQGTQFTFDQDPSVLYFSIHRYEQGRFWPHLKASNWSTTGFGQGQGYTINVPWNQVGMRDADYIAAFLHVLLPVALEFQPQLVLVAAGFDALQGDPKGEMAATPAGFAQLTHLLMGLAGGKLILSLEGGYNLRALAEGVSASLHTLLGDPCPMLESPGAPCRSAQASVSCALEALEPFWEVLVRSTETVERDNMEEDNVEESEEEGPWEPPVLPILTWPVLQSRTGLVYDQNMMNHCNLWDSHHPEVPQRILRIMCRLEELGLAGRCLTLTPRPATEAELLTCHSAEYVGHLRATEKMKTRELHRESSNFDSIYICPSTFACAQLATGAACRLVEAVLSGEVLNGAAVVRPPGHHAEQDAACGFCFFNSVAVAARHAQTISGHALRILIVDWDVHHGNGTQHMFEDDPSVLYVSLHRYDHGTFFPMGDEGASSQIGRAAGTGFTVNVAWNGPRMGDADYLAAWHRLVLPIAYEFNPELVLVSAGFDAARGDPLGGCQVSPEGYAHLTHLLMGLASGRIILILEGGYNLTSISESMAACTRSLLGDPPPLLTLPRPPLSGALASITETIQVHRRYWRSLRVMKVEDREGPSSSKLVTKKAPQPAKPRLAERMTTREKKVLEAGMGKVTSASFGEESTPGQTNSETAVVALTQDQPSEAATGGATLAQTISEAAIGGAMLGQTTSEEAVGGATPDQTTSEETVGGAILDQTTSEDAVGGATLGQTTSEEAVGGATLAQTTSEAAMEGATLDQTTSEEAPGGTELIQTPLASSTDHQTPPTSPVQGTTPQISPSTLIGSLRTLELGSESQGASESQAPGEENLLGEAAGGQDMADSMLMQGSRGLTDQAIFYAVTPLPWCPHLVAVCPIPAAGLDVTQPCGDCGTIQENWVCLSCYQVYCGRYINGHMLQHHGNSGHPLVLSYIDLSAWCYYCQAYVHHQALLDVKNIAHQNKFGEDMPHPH

human neural stem cells = experiment: CellTiter-Glo cell viability assay in hNSC; assay type: cell-based; settings: for Viability: IC50, hNSC: cherry-pick confirmation, 1 hour
HDAC5 = HDAC5 (Homo sapiens, UniProt Q9UQL6); experiment: Fluorogenic isoform-specific HDAC assay, HDAC5; assay type: biochemical
Chain of HDAC5 (Q9UQL6 whole entry, canonical isoform): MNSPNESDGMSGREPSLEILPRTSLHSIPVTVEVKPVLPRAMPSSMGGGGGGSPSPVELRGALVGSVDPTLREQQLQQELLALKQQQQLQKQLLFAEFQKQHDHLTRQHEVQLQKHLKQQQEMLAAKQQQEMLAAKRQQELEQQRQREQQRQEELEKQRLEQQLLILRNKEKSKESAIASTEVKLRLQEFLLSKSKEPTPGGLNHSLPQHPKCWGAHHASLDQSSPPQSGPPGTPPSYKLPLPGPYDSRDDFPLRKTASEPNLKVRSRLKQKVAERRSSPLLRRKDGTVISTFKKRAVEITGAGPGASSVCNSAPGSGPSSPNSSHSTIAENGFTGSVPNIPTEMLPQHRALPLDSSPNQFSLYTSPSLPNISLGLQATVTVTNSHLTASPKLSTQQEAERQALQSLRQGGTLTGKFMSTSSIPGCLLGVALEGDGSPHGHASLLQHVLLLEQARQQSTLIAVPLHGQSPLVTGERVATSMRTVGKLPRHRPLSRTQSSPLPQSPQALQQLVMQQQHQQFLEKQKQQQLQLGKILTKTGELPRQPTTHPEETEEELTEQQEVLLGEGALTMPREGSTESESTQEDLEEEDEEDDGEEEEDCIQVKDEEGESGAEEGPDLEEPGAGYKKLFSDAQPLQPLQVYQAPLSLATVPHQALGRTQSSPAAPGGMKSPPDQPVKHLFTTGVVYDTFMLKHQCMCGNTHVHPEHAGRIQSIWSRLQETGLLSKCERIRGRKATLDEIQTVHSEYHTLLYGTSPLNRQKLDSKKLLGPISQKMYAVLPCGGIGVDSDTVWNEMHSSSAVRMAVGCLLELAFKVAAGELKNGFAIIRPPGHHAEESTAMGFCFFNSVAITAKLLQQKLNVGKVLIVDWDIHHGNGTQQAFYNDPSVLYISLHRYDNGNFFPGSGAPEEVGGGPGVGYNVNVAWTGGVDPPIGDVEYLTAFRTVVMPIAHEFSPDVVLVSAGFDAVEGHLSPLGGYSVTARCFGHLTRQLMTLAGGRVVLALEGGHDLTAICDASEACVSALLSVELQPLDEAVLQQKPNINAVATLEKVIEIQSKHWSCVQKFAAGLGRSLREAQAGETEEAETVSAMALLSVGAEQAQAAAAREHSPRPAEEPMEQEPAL

HCT116 cells = experiment: CellTiter-Glo cell viability assay in HCT116; assay type: cell-based, human; settings: cherry-pick confirmation, 1 hour
HDAC9 = HDAC9 (Homo sapiens, UniProt Q9UKV0); experiment: Fluorogenic isoform-specific HDAC assay, HDAC9; assay type: biochemical
Chain of HDAC9 (Q9UKV0 whole entry, canonical isoform): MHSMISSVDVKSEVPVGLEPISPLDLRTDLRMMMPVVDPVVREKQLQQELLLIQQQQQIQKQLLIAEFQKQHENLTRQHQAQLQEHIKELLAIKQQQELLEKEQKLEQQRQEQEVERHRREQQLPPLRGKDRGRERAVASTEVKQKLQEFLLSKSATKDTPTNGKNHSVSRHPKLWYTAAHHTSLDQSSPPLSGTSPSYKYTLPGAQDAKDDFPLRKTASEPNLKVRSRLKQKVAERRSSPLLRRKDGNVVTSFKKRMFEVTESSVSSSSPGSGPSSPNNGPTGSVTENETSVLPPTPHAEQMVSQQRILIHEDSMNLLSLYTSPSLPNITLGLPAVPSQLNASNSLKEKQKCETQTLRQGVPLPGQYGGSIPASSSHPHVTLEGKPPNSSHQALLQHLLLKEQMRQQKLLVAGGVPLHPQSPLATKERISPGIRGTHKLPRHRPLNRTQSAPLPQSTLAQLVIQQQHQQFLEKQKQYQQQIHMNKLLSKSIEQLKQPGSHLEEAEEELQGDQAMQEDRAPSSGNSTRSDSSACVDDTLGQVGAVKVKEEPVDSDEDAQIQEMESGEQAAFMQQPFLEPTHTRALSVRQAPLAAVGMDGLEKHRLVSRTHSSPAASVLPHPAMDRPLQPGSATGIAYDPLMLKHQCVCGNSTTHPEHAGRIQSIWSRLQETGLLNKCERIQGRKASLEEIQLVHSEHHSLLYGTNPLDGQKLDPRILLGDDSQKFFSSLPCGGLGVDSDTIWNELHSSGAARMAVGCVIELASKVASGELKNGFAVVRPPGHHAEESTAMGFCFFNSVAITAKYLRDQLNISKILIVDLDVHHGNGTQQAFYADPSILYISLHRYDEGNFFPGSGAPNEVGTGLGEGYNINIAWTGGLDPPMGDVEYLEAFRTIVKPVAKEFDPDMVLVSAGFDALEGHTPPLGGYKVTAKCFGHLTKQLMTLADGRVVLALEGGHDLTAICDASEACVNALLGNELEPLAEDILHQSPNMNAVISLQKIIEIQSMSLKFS

HDAC1 = HDAC1 (Homo sapiens, UniProt Q13547); experiment: Fluorogenic isoform-specific HDAC assay, HDAC1; assay type: biochemical
Chain of HDAC1 (Q13547 whole entry, canonical isoform): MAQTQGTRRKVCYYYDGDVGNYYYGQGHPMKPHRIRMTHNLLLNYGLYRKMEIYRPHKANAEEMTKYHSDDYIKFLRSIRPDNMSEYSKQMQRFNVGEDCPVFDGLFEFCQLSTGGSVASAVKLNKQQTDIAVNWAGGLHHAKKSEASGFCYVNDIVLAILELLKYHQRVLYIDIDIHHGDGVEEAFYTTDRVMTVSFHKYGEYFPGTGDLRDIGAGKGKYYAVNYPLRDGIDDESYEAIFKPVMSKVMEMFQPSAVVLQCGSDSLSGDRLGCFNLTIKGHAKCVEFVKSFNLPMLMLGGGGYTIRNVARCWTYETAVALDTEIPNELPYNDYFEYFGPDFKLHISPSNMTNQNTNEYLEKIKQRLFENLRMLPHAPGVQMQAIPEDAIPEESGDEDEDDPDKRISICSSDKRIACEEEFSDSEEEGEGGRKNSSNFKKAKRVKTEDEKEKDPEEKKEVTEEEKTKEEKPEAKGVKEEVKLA

HDAC4 = HDAC4 (Homo sapiens, UniProt P56524); experiment: Fluorogenic isoform-specific HDAC assay, HDAC4; assay type: biochemical
Chain of HDAC4 (P56524 whole entry, canonical isoform): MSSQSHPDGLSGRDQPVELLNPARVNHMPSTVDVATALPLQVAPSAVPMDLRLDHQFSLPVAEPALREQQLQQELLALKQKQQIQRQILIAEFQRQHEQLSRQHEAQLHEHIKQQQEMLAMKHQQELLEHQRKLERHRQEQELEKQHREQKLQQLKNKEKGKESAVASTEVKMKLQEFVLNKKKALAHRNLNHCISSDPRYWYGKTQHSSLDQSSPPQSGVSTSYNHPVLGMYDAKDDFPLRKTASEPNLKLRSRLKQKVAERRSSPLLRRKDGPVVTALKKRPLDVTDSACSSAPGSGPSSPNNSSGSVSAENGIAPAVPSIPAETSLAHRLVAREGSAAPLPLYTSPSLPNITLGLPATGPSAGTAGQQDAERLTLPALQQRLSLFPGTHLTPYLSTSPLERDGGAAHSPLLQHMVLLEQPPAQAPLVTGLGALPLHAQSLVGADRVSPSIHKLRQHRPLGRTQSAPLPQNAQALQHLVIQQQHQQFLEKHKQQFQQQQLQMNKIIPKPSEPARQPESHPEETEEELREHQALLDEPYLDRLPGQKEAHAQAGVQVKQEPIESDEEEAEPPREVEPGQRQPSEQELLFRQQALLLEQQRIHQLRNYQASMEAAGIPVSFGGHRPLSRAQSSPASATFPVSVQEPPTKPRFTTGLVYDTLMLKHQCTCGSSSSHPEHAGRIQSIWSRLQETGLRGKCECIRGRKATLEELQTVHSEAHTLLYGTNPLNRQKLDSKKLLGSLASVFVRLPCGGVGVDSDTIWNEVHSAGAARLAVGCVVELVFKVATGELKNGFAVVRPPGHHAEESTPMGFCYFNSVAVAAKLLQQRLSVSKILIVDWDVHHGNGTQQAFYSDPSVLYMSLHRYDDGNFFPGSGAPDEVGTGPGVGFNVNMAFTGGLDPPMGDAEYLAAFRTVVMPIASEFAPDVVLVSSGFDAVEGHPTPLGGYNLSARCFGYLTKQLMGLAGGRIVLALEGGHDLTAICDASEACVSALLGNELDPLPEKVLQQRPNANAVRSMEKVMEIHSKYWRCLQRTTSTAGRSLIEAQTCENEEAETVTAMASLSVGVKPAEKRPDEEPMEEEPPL

HDAC8 = target: T2, HDAC8 (Homo sapiens, UniProt Q9BY41); experiment: Fluorogenic isoform-specific HDAC assay, HDAC8; assay type: biochemical
T2 sequence (Q9BY41 1-377): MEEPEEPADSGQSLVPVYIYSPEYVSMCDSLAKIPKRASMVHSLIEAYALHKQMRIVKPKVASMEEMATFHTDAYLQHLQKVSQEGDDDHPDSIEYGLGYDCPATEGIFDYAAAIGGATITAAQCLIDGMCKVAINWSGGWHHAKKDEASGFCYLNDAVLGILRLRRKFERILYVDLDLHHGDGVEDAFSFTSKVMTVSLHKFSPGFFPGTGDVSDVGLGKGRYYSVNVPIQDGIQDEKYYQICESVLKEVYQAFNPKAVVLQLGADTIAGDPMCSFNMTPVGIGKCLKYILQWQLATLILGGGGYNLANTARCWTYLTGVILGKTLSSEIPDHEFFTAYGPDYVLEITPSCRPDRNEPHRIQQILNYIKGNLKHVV

HDAC I/II [1] = experiment: HDAC-Glo I/II assay in human neural stem cells; assay type: cell-based; settings: for HDAC-Glo: Efficacy, hNSC: maximal response; for inhibition of HDAC-Glo I/II luminescence signals: hNSCs, Figure 2
HDAC2 = HDAC2 (Homo sapiens, UniProt Q92769); experiment: Fluorogenic isoform-specific HDAC assay, HDAC2; assay type: biochemical
Chain of HDAC2 (Q92769 whole entry, canonical isoform): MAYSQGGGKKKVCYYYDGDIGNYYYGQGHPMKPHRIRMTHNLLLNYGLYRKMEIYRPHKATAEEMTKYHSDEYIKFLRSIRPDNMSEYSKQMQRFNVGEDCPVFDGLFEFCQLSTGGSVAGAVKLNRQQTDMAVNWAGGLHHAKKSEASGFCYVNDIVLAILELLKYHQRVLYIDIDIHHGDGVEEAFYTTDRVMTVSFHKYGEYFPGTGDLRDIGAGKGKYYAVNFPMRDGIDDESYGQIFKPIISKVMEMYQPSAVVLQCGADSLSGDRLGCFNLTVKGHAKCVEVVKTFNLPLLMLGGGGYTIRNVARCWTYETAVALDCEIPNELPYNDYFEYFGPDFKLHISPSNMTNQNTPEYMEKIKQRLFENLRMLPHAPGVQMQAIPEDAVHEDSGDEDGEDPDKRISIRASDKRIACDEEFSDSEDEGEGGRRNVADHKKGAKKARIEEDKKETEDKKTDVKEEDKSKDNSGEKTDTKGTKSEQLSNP

[2] = system: class I and II HDAC enzymes; experiment: Panel of fluorogenic assays against ten class I and II HDAC isoforms; assay type: biochemical, human
HDAC I/II [3] = experiment: HDAC-Glo I/II assay in HCT116 cells; assay type: cell-based, human; settings: for HDAC-Glo: Efficacy, HCT116 / Efficacy, HDAC-Glo I/II HCT116 assay: maximal response
HDAC3 = HDAC3 (Homo sapiens, UniProt O15379); experiment: Fluorogenic isoform-specific HDAC assay, HDAC3; assay type: biochemical
Chain of HDAC3 (O15379 whole entry, canonical isoform): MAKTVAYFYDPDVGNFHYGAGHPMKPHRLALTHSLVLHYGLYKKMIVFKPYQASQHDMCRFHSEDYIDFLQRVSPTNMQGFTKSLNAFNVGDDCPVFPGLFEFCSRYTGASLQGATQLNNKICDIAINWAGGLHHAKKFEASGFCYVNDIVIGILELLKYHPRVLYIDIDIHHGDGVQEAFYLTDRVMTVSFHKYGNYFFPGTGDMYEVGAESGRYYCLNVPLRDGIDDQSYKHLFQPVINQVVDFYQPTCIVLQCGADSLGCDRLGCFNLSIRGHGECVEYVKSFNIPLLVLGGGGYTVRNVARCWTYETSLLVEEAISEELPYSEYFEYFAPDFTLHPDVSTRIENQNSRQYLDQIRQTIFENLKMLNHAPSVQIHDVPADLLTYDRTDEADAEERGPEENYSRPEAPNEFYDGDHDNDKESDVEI
Chain of HDAC3 (Q9Y618 395-489 partner limits assumed): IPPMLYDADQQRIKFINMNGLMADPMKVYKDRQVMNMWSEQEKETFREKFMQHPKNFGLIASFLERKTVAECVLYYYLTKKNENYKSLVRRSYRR

[4] = CellTiter-Glo cell viability assay in hNSC; assay type: cell-based, human; settings: human, human neural stem cells (hNSC)
HDAC7 = target: T3, HDAC7 (Homo sapiens, UniProt Q8WUI4); experiment: Fluorogenic isoform-specific HDAC assay, HDAC7; assay type: biochemical; settings: Figure 4D, Suppl. Table S4
T3 sequence (Q8WUI4 1-952): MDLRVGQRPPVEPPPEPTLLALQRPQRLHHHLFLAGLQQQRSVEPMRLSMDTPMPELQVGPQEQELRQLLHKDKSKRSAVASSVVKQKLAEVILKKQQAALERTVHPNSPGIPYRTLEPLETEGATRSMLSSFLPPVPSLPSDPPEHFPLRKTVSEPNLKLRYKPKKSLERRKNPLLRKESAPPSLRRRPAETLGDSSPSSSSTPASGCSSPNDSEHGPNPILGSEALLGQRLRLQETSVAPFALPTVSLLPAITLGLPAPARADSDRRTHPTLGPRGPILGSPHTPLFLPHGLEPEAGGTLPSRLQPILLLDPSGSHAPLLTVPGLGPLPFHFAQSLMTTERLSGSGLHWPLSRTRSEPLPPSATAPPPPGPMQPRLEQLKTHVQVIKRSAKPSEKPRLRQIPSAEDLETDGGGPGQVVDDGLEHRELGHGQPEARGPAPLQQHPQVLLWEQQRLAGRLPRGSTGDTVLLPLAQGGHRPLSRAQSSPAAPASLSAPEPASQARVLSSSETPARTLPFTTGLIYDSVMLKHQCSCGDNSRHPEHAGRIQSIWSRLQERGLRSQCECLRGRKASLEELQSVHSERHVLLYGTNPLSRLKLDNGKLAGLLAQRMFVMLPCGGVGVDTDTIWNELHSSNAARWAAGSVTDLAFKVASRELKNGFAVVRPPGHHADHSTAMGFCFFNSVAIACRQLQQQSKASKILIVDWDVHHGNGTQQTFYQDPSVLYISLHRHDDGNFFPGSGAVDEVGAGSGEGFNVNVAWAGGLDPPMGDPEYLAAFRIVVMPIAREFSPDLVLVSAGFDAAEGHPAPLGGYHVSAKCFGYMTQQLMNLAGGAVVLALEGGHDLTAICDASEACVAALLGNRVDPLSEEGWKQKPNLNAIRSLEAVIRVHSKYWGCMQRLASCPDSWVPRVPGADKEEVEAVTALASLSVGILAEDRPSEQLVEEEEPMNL

HDAC I/II [5] = experiment: HDAC-Glo I/II assay in SU-DHL-6 cells; assay type: cell-based, human; settings: read-out: average IC50, HDAC-Glo I/II activity; SU-DHL-6, assay optimization, Figure 1A
HDAC I/II [6] = experiment: HDAC-Glo I/II assay in HEK293 cells; assay type: cell-based, human; settings: read-out: average IC50, HDAC-Glo I/II activity; HEK293, assay optimization, Figure 1A
HDAC I/II [7] = experiment: HDAC-Glo I/II assay in HepG2 cells; assay type: cell-based, human; settings: read-out: average IC50, HDAC-Glo I/II activity; HepG2, assay optimization, Figure 1A
[8] = read-out: HDAC-Glo: IC50, hNSC, cherry-pick confirmation, 11 concentrations, 1 hour
[9] = read-out: HDAC-Glo: IC50, HCT116, cherry-pick confirmation, 11 concentrations, 1 hour
[10] = read-out: IC50, HDAC-Glo I/II HCT116 assay, powder confirmation

Structure (SMILES)	IC50 (HDAC6) [nM]	Viability: IC50, hNSC (human neural stem cells)	IC50 (HDAC5) [nM]	Viability: IC50, HCT116 (HCT116 cells)	IC50 (HDAC9) [nM]	IC50 (HDAC8) [nM]	HDAC-Glo: Efficacy, hNSC (HDAC I/II [1]; cherry-pick confirmation) [%]	inhibition of HDAC-Glo I/II luminescence signals (HDAC I/II [1]; cherry-pick confirmation)	IC50 (HDAC I/II [1]; [8]) [nM]	IC50 (HDAC2) [nM]	HDAC-Glo: Efficacy, HCT116 (HDAC I/II [3]; cherry-pick confirmation) [%]	Efficacy, HDAC-Glo I/II HCT116 assay (HDAC I/II [3]; powder confirmation) [%]	IC50 (HDAC I/II [3]; [9]) [nM]	IC50 (HDAC I/II [3]; [10]) [nM]	IC50 (HDAC3) [nM]	further results
N=C(N)c1ccc2cc(OC(=O)c3ccc(N=C(N)N)cc3)ccc2c1 [Nafamostat]	4390	Inactive	1330	Inactive	1550	1520	108 ± 1	completely inhibited	360 ± 140	4690	116 ± 3	99 ± 0	1110 ± 250	120 ± 30	4040	IC50 (HDAC1): 4670 nM; IC50 (HDAC4): 1490 nM; isoform selectivity ([2]; red-shifted versions of fluorogenic assays, Figure 4A, 4B): more selective in inhibiting HDAC4, HDAC5, and HDAC8 than other HDAC isoforms
Oc1cc(O)cc(/C=C/c2ccc(O)c(O)c2)c1 [Piceatannol]	8220		890	Inactive	9950	3420	108 ± 4	completely inhibited	4180	5040	105 ± 7	60 ± 4	5900	10300 ± 1060	23300	viability at 1 h [4]: 25%; IC50 (human neural stem cells; Homo sapiens, Neural stem cell, 1 h, read-out: Viability: IC50, hNSC): 19500 ± 2490 nM; inhibition of HDAC activity, HDAC5 (HDAC5; Figure 4D, Suppl. Table S4): over 30%; inhibition of HDAC activity, HDAC9 (HDAC9; Figure 4D, Suppl. Table S4): over 30%; inhibition of HDAC activity, HDAC7 (HDAC7): over 30%; inhibition of HDAC activity, HDAC1 (HDAC1; Figure 4C, Suppl. Table S4): over 30%
CC(/C=C/C(=O)NO)=C\[C@@H](C)C(=O)c1ccc(N(C)C)cc1 [Trichostatin A]		Inactive		Inactive			114 ± 6		100 ± 20		119 ± 5	99 ± 0	70 ± 10	110 ± 10		IC50 (HDAC I/II [5]): 100 nM; IC50 (HDAC I/II [6]): 90 nM; IC50 (HDAC I/II [1]; read-out: average IC50, HDAC-Glo I/II activity, hNSC, assay optimization, Figure 1A): 440 nM; IC50 (HDAC I/II [7]): 50 nM; inhibition against all class I and II HDAC enzymes ([2]; 20 μM): over 80%; inhibition of HDAC isoforms (in words) ([2]; 20 μM, Figure 3): inhibited activities of all isoforms; HDAC I/II inhibitory activity (in words) (HDAC I/II [3]; HCT116 and HEK293 cells, validation with epigenetics libraries): greatly inhibited HDAC-Glo I/II activity; IC50 (HDAC I/II [3]; read-out: IC50, HDAC-Glo I/II, HCT116 cells, time course, one hour treatment): 50 ± 30 nM; IC50 (HDAC I/II [3]; read-out: average IC50, HDAC-Glo I/II activity, HCT116, assay optimization, Figure 1A): 250 nM
